Legend:
Na—K—Cl co-transporter = biological target: T1, Na—K—Cl co-transporter (Homo sapiens, UniProt P55011); test: Na—K—Cl co-transport measured as bumetamide-sensitive K influx (86Rb tracer) in human TM cell monolayers; type: cell-based; conditions: human TM cells
T1 construct: endogenous in cells; host or cells: cultured human trabecular meshwork (TM) cells, normal or glaucomatous donors
T1 sequence (P55011 1-1212): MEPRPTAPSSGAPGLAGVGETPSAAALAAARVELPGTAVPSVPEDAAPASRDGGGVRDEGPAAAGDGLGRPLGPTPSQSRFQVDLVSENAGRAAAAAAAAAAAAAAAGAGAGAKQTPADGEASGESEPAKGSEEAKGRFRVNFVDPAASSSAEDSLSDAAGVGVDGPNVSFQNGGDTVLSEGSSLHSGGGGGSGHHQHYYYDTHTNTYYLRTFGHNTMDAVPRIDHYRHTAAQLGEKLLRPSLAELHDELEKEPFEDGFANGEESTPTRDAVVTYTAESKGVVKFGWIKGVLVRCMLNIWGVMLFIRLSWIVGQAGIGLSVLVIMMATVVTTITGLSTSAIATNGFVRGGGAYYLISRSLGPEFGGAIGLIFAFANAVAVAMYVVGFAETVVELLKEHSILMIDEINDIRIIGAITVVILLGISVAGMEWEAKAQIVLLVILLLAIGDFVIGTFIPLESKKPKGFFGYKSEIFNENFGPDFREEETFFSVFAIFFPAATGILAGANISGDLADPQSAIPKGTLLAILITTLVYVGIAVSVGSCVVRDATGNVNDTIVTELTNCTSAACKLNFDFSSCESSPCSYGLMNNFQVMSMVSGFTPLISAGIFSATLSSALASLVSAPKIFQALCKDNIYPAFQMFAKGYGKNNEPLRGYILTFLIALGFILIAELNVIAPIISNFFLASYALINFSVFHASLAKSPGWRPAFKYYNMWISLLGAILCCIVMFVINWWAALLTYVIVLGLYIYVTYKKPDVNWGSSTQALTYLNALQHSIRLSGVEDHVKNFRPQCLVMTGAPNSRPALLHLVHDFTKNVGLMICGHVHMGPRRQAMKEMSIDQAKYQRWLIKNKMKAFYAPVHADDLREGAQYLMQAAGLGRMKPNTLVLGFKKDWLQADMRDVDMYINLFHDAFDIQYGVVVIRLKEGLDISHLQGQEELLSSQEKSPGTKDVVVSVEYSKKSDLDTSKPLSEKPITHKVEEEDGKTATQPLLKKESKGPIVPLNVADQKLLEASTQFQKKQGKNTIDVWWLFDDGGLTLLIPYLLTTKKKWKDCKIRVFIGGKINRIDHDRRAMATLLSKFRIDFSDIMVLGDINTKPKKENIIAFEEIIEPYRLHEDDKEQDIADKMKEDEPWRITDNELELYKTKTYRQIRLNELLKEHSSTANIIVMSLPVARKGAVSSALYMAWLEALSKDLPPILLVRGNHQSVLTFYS
Experimental: Na—K—Cl co-transport was measured as ouabain-insensitive, bumetamide-sensitive potassium influx, using ^86Rb as a tracer for potassium. […] The assay medium also contained ^86Rb (1 μCi/ml) (Dupont New England Nuclear, Boston, Mass.). The assay was terminated by rinsing the wells with ice-cold isotonic MgCl2, then extracting the contents with 0.2% sodium dodecyl sulfate (SDS), and determining the amount of radioactive contents by liquid scintillation. Osmolarities of all preincubation and assay media were verified by osmometry (Model 3W2, Advanced Instruments, Norwood, Mass.).
The cells were pretreated with Hepes-buffered minimal essential medium (MEM) ±10 μM bumetamide ±1 mM ouabain for 5 min, then assayed for 5 min in the same media plus ^86Rb. […] Data are means ±SEM, n=12.
Na—K—Cl co-transport activity of glaucomatous human TM cells was assessed as ouabain-insensitive, bumetamide-sensitive K influx, using ^86Rb as a tracer for K, as described previously. TM cells were preincubated for 5 minutes in a Hepes-buffered MEM containing 0 or 10 μM bumetamide in the presence of 1 mM ouabain, followed by a 5 minute assay in media of identical composition except that they also contained ^86Rb. […] Data are mean values ±SEM in seven normal TM cultures (donor age range, 38-68 years, n=12 in each cell culture) and in seven glaucomatous cultures (donor age range 41-75 years, n=7 in each cell culture).
Human TM cells were equilibrated in Hepes-buffered MEM for 30 minutes and then pretreated for 5 minutes in media containing 1 mM ouabain, 10 or 0 μM bumetamide, and 0.3 μM to 1 mM niflumic acid (NA). Cells were then assayed for bumetamide-sensitive K influx for 5 minutes in media identical to the pretreatment media but also containing ^86Rb (1 μCi/ml). […] Dashed line indicates control level of Na—K—Cl co-transport. Data are means ±SEM of at least 4 determinations from 3 experiments.

TM cells = test: Intracellular [Cl] of TM cells; type: cell-based; conditions: niflumic acid 100 μM

SMILES: O=C(O)c1cccnc1Nc1cccc(C(F)(F)F)c1 [niflumic acid]
- K influx value versus 0 mM NA control (Na—K—Cl co-transporter; niflumic acid 0.1 μM): not significantly different
- Na—K—Cl co-transporter activity (Na—K—Cl co-transporter; niflumic acid 0.3 μM to 100 μM): significantly stimulate
- intracellular [Cl] of the TM cells (TM cells): significantly reduced

Reference: patent US20020177625A1, “Class of glaucoma drugs to enhance aqueous humor outflow and lower intra-ocular pressure” (The Regents of the University of California, a California …, priority 2001, published 2002)
